“Also recorded” adds a separate entry of the source. Where a name gives a salt, the structure may show the parent alone.
How the values were obtained:
[1] = cited from earlier work
[2] = tested on: Pseudomonas aeruginosa NC-5 strain; experiment: Protective effect against experimentally infected mice, two oral administrations; format: in vivo, mice infected with Pseudomonas aeruginosa
Procedure: c. Mice (one group included five mice) were infected with Pseudomonas aeruginosa NC-5 strain via the intraperitoneal route and the test substance was orally administered twice, i. e., immediately after challenge of the test organism and after 2 hours.

[3] = tested on: Pseudomonas aeruginosa 35 strain; experiment: MIC distribution, clinical isolated strains; format: cell-based; conditions: of 35 strains; for number of strains with MIC 1.56: MIC 1.56 μ/ml; for number of strains with MIC 12.5: MIC 12.5 μ/ml; for number of strains with MIC 25: MIC 25 μ/ml; for number of strains with MIC 50: MIC 50 μ/ml; for number of strains with MIC 100: MIC 100 μ/ml; for number of strains with MIC >100: MIC >100 μ/ml
Description: (Pseudomonas aeruginosa 35 strain)
(§1) It is clear from the results shown in the above tables, as regards the antibacterial activities against clinical isolated strains, the compounds of this invention show quite high activity against not only Pseudomonas aeruginosa but also against Klebsiella as compared with carbenicillin

male Sprague-Dawley rats [4] = experiment: Nephrotoxicity after 1 week subcutaneous injection; format: in vivo; conditions: 7 days
Procedure: b. Test antibiotics were administered to male Sprague-Dawley rats by subcutaneous injection daily for 7 days. After seven days, animals were sacrificed and estimated for organ weight and serum urea-nitrogen including visual studies of kidney.

[5] = tested on: Pseudomonas aeruginosa NC-5 strain; experiment: Protective effect against experimentally infected mice, one subcutaneous administration; format: in vivo, mice infected with Pseudomonas aeruginosa; conditions: s.c. once
Description: a. Mice (one group included five mice) were infected with pseudomonas aeruginosa NC-5 strain the intraperitoneal route and a solution prepared by dissolving the test antibiotics in sterilized distilled water was once administered by subcutaneous injection immediately after challenge of the test organism and then the numbers of living mice were inspected. […] (The figures shown in Tables VII-IX have the same meaning).

[6] = tested on: Pseudomonas aeruginosa NC-5 strain; experiment: Protective effect against experimentally infected mice, three subcutaneous administrations; format: in vivo, mice infected with Pseudomonas aeruginosa; conditions: s.c.
Procedure: b. Mice (one group included five mice) were infected with pseudomonas aeruginosa NC-5 strain via intraperitoneal route and a solution prepared by dissolving the test substance in sterilized distilled water was administered by subcutaneous injection three times, i. e., immediately after challenge of the test organism, after 2 hours, and after 4 hours.

male dd-N mice = experiment: Acute toxicity (minimum lethal dose); format: in vivo
Description: a. The minimum lethal doses (MLD) when the compound of this invention was intravenously and subcutaneously administered to male dd-N mice are shown in Table X.

Klebsiella genus = conditions: background; cited from earlier work
male Sprague-Dawley rats [7] = experiment: Acute nephrotoxicity in combination with glycerol and furocemide in rats; format: in vivo; conditions: for Serum urea nitrogen: with glycerol 4 ml/Kg of 50% and furocemide 50 mg/Kg s.c., 48 hours; for serum urea nitrogen relative to control group (in words): with glycerol and furocemide
Procedure: c. Glycerol (50%, 4 ml/kg), furocemide (50 mg/kg) and test actibiotics were injected subcutaneously in male Sprague-Dawley rats. […] Animals of each group were sacrificed 48 hours later to estimate serum urea-nitrogen values.

[8] = tested on: Escherichia coli 31 strain; experiment: MIC distribution, clinical isolated strains; format: cell-based; conditions: of 31 strains; for number of strains with MIC 1.56: MIC 1.56 μ/ml; for number of strains with MIC 12.5: MIC 12.5 μ/ml; for number of strains with MIC 25: MIC 25 μ/ml; for number of strains with MIC 50: MIC 50 μ/ml; for number of strains with MIC 100: MIC 100 μ/ml; for number of strains with MIC >100: MIC >100 μ/ml
Description: (Escherichia coli 31 strain)
as §1

[9] = tested on: Proteus mirabilis 1287 strain; experiment: Protective effect against experimentally infected mice, one subcutaneous administration; format: in vivo, mice infected with Proteus mirabilis; conditions: s.c. once, 2 hours after challenge
Procedure: d. Mice (one group included five mice) were infected with Proteus mirabilis 1287 strain via the intraperitoneal route and a solution prepared by dissolving the test antiobiotics in sterilized distilled water was once administered by subcutaneous injection 2 hours after of challenge of the test organism.

Klebsiella 78 strain = experiment: MIC distribution, clinical isolated strains; format: cell-based; conditions: of 78 strains; for number of strains with MIC 1.56: MIC 1.56 μ/ml; for number of strains with MIC 12.5: MIC 12.5 μ/ml; for number of strains with MIC 25: MIC 25 μ/ml; for number of strains with MIC 50: MIC 50 μ/ml; for number of strains with MIC 100: MIC 100 μ/ml; for number of strains with MIC 400: MIC 400 μ/ml; for number of strains with MIC >400: MIC >400 μ/ml
Description: as §1

gram negative bacteria = conditions: background; cited from earlier work
[10] = Water solubility and pH of aqueous solution; format: physicochemical; conditions: 250 mg/ml in water
Procedure: As the compounds of this invention are easily soluble in water, the compound can be clinically used as an agent for parenteral administration such as an agent for intravenous injection and an agent for intramuscular injection. For example, when sodium D(-)-6-[α-(p-hydroxyphenyl)-α-(4-oxo-4H-thiopyran-3-yl-carboxanido acetamido]penicillanate is dissolved in water, the pH of the solution is about 5.8 (250 mg/ml).

Stability of di-hydrate = format: physicochemical
Description: In addition, if the water-containing organic solvent solution keeps up its homogeneity, an organic solvent immiscible with water such as methylene chloride, chloroform, etc., may be added to the solution.

male Sprague-Dawley rats [11] = conditions: small dose subcutaneously; cited from earlier work

CC1(C)S[C@@H]2[C@H](NC(=O)[C@H](N)c3ccc(O)cc3)C(=O)N2[C@H]1C(=O)O [Amoxicillin, α-amino-p-hydroxybenzylpenicillin]
concentration in blood by oral administration [1]: high concentration in blood by oral administration | number of living mice / number of mice inspected ([2]; 25 × 2 mg): 0/5 | number of living mice / number of mice inspected ([2]; 50 × 2 mg): 0/5 | number of living mice / number of mice inspected ([2]; 100 × 2 mg): 0/5

CC1(C)S[C@@H]2[C@H](NC(=O)C(C(=O)O)c3ccccc3)C(=O)N2[C@H]1C(=O)O (stereo partly drawn) [Carbenicillin, α-carboxybenzylpenicillin]
number of strains with MIC 1.56 [3]: 0 | number of strains with MIC […] ([3]; MIC 3.13 μ/ml): 0 | number of strains with MIC […] ([3]; MIC 6.25 μ/ml): 0 | number of strains with MIC 12.5 [3]: 0 | number of strains with MIC 25 [3]: 3 | number of strains with MIC 50 [3]: 4 | number of strains with MIC 100 [3]: 8 | number of strains with MIC >100 [3]: 20 | Kidney weights (male Sprague-Dawley rats [4]; 1000 mg/Kg/day sc): 2.53 g | Serum urea-N (male Sprague-Dawley rats [4]; 1000 mg/Kg/day sc): 24.0 mg/dL | renal findings (male Sprague-Dawley rats [4]; 1000 mg/Kg/day sc): no abnormal findings | number of living mice / number of mice inspected ([5]; 15 mg): 1/5 | number of living mice / number of mice inspected ([5]; 30 mg): 2/5 | number of living mice / number of mice inspected ([5]; 60 mg): 4/5 | number of living mice / number of mice inspected ([6]; 2.5 × 3 mg): 2/5 | number of living mice / number of mice inspected ([6]; 5 × 3 mg): 0/5 | number of living mice / number of mice inspected ([6]; 10 × 3 mg): 5/5 | MLD (male dd-N mice; i.v.): 7000 mg/kg | MLD (male dd-N mice; s.c.): > 10000 mg/kg | activity against the Klebsiella genus (in words) (Klebsiella genus): weak antibacterial activity against the Klebsiella genus | Serum urea nitrogen (male Sprague-Dawley rats [7]; 1000 mg/Kg s.c.): 29.7 ± 7.2 mg/dL | nephrotoxicity (in words) (male Sprague-Dawley rats [7]; rat, in vivo): no nephrotoxicity resulted | serum urea nitrogen relative to control group (in words) (male Sprague-Dawley rats [7]): no remarkable difference | number of strains with MIC 1.56 [8]: 1 | number of strains with MIC […] ([8]; MIC 3.13 μ/ml): 7 | number of strains with MIC […] ([8]; MIC 6.25 μ/ml): 8 | number of strains with MIC 12.5 [8]: 6 | number of strains with MIC 25 [8]: 0 | number of strains with MIC 50 [8]: 0 | number of strains with MIC 100 [8]: 0 | number of strains with MIC >100 [8]: 9 | number of living mice / number of mice inspected ([9]; 1.25 mg): 0/5 | number of living mice / number of mice inspected ([9]; 2.5 mg): 1/5 | number of living mice / number of mice inspected ([9]; 5 mg): 2/5 | number of living mice / number of mice inspected ([9]; 10 mg): 4/5 | number of strains with MIC 1.56 (Klebsiella 78 strain): 1 | number of strains with MIC […] (Klebsiella 78 strain; MIC 3.13 μ/ml): 1 | number of strains with MIC […] (Klebsiella 78 strain; MIC 6.25 μ/ml): 1 | number of strains with MIC 12.5 (Klebsiella 78 strain): 0 | number of strains with MIC 25 (Klebsiella 78 strain): 0 | number of strains with MIC 50 (Klebsiella 78 strain): 8 | number of strains with MIC 100 (Klebsiella 78 strain; first column headed 100): 8 | number of strains with MIC 100 (Klebsiella 78 strain; second column headed 100): 16 | number of strains with MIC 400 (Klebsiella 78 strain): 16 | number of strains with MIC >400 (Klebsiella 78 strain): 27

O=C(Cc1cccs1)N[C@@H]1C(=O)N2C(C(=O)[O-])=C(C[n+]3ccccc3)CS[C@H]12 [Cephaloridine]
Serum urea nitrogen (male Sprague-Dawley rats [7]; 500 mg/Kg s.c.): 50.7 ± 13.6 mg/dL | serum urea nitrogen relative to control group (in words) (male Sprague-Dawley rats [7]): remarkable increase of serum urea nitrogen

CC1(C)S[C@@H]2[C@H](NC(=O)[C@H](N)C3=CCC=CC3)C(=O)N2[C@H]1C(=O)O [Epicillin, 6-[D-2-amino-2-(1,4-cyclohexadien-1-yl)acetamido]penicillanic acid]
activity to gram negative bacteria (in words) (gram negative bacteria): selective antibacterial activity to, in particular, gram negative bacteria

CC1(C)S[C@@H]2[C@H](NC(=O)[C@H](NC(=O)c3csccc3=O)c3ccc(O)cc3)C(=O)N2[C@H]1C(=O)O [Example 3, α-(4-oxo-4H-thiopyran-3-carboxamido)-p-hydroxybenzylpenicillin sodium salt]
number of strains with MIC 1.56 [3]: 2 | number of strains with MIC […] ([3]; MIC 3.13 μ/ml): 5 | number of strains with MIC […] ([3]; MIC 6.25 μ/ml): 6 | number of strains with MIC 12.5 [3]: 6 | number of strains with MIC 25 [3]: 2 | number of strains with MIC 50 [3]: 5 | number of strains with MIC 100 [3]: 2 | number of strains with MIC >100 [3]: 7 | Kidney weights (male Sprague-Dawley rats [4]; 1000 mg/Kg/day sc): 2.30 g | Serum urea-N (male Sprague-Dawley rats [4]; 1000 mg/Kg/day sc): 20.3 mg/dL | number of living mice / number of mice inspected ([5]; 15 mg): 2/5 | number of living mice / number of mice inspected ([5]; 30 mg): 3/5 | number of living mice / number of mice inspected ([5]; 60 mg): 5/5 | number of living mice / number of mice inspected ([6]; 2.5 × 3 mg): 5/5 | number of living mice / number of mice inspected ([6]; 5 × 3 mg): 5/5 | number of living mice / number of mice inspected ([6]; 10 × 3 mg): 5/5 | MLD (male dd-N mice; i.v.): 3500 mg/kg | MLD (male dd-N mice; s.c.): 7000 mg/kg | number of living mice / number of mice inspected ([2]; 25 × 2 mg): 2/5 | number of living mice / number of mice inspected ([2]; 50 × 2 mg): 3/5 | number of living mice / number of mice inspected ([2]; 100 × 2 mg): 5/5 | Serum urea nitrogen (male Sprague-Dawley rats [7]; 1000 mg/Kg s.c.): 23.3 ± 2.5 mg/dL | number of strains with MIC 1.56 [8]: 2 | number of strains with MIC […] ([8]; MIC 3.13 μ/ml): 1 | number of strains with MIC […] ([8]; MIC 6.25 μ/ml): 8 | number of strains with MIC 12.5 [8]: 9 | number of strains with MIC 25 [8]: 2 | number of strains with MIC 50 [8]: 0 | number of strains with MIC 100 [8]: 0 | number of strains with MIC >100 [8]: 9 | number of living mice / number of mice inspected ([9]; 1.25 mg): 1/5 | number of living mice / number of mice inspected ([9]; 2.5 mg): 2/5 | number of living mice / number of mice inspected ([9]; 5 mg): 4/5 | number of living mice / number of mice inspected ([9]; 10 mg): 3/5 | number of strains with MIC 1.56 (Klebsiella 78 strain): 0 | number of strains with MIC […] (Klebsiella 78 strain; MIC 3.13 μ/ml): 0 | number of strains with MIC […] (Klebsiella 78 strain; MIC 6.25 μ/ml): 2 | number of strains with MIC 12.5 (Klebsiella 78 strain): 17 | number of strains with MIC 25 (Klebsiella 78 strain): 30 | number of strains with MIC 50 (Klebsiella 78 strain): 1 | number of strains with MIC 100 (Klebsiella 78 strain; first column headed 100): 1 | number of strains with MIC 100 (Klebsiella 78 strain; second column headed 100): 7 | number of strains with MIC 400 (Klebsiella 78 strain): 4 | number of strains with MIC >400 (Klebsiella 78 strain): 16 | pH of the solution [10]: about 5.8

CC1(C)S[C@@H]2[C@H](NC(=O)[C@H](NC(=O)c3csccc3=O)c3ccc(O)cc3)C(=O)N2[C@H]1C(=O)O [Example 27, D(-)-6-[p-hydroxy-phenyl-α-(4-oxo-4H-thiopyran-3-ylcarboxamido)acetamido]penicillanic acid di-hydrate]
stability (Stability of di-hydrate): pure and stable

NC[C@H]1O[C@H](O[C@H]2[C@H](O)[C@@H](O[C@H]3O[C@H](CO)[C@@H](O)[C@H](N)[C@H]3O)[C@H](N)C[C@@H]2N)[C@H](O)[C@@H](O)[C@@H]1O [Kanamycin]
Kidney weights (male Sprague-Dawley rats [4]; 500 mg/kg/day sc): 3.52 g | Serum urea-N (male Sprague-Dawley rats [4]; 500 mg/kg/day sc): 70.7 mg/dL | renal findings (male Sprague-Dawley rats [4]; 500 mg/kg/day sc): renal hypertropy, ischemia of renal cortex; also recorded: abnormal increase of serum urea-nitrogen values; also recorded: severe renal impairement

OCC(O)CO [glycerol]
renal impairment (male Sprague-Dawley rats [11]): mild and reversible renal impairment
